According to patent publication US9657014B2, “Substituted 1,6-naphthyridines” (Hoffmann-La Roche Inc., priority 2012, dated 2017):

These molecules were tested on human embryonic stem cell derived neural stem cells (NSCs) (assay: Neural stem cell proliferation assay (neurogenesis assay)). Conditions: Homo sapiens, Neural stem cell, 96 h; Table 2, known compounds; concentration at which 150% activity of control (100%) is reached; ATP levels (CellTiterGlo) after 4 days incubation.
Type: cell-based
Method in brief: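 NSCs derived from human ES cells by dual SMAD inhibition, seeded on polyornithin/laminin, dosed 4 h later (11 points, 8 μM to 8 nM). After 4 days at 37° C, ATP luminescence read; response = compound/medium control ×100, EC150 = concentration giving 150% of control.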

`O=C(NCc1ccncc1)c1ccc2cncc(-c3ccsc3)c2n1` [Example 198, 8-Thiophen-3-yl-[1,6]naphthyridine-2-carboxylic acid (pyridin-4-ylmethyl)-amide] and `O=C(NCc1ccccc1)c1ccc2cncc(-c3ccsc3)c2n1` [Example 199, 8-Thiophen-3-yl-[1,6]naphthyridine-2-carboxylic acid benzylamide] are within 1.5-fold of each other in EC (150% of control): 0.12 µM for the first, 0.1 µM for the second.

Going from `O=C(c1ccc2cncc(-c3ccsc3)c2n1)N1CCN(c2ccccn2)CC1` [Example 200, (4-Pyridin-2-yl-piperazin-1-yl)-(8-thiophen-3-yl-[1,6]naphthyridin-2-yl)-methanone] to `COc1ccccc1CNC(=O)c1ccc2cncc(-c3ccsc3)c2n1` [Example 202, 8-Thiophen-3-yl-[1,6]naphthyridine-2-carboxylic acid 2-methoxy-benzylamide], the EC (150% of control) falls from 0.8 µM to 0.15 µM (5.3-fold).

Going from `O=C(NCc1ccc(Cl)cc1)c1ccc2cncc(-c3ccsc3)c2n1` [Example 201, 8-Thiophen-3-yl-[1,6]naphthyridine-2-carboxylic acid 4-chloro-benzylamide] to `O=C(NCc1ccc(C(F)(F)F)nc1)c1ccc2cncc(-c3ccsc3)c2n1` [Example 203, 8-Thiophen-3-yl-[1,6]naphthyridine-2-carboxylic acid (6-trifluoromethyl-pyridin-3-ylmethyl)-amide], the EC (150% of control) rises from 0.8 µM to 1.5 µM (1.9-fold).

First: COCCNC(=O)c1ccc2cncc(-c3ccccc3)c2n1 [Example 204, 8-Phenyl-[1,6]naphthyridine-2-carboxylic acid (2-methoxy-ethyl)-amide]
Second: O=C(c1ccc2cncc(-c3cc4ccccc4o3)c2n1)N1CCCCC1 [Example 205, (8-Benzofuran-2-yl-[1,6]naphthyridin-2-yl)-piperidin-1-yl-methanone]
The EC (150% of control) of the first is 18-fold lower: 0.2 µM for the first, 3.5 µM for the second.

For `NC(=O)c1ccc2cncc(Br)c2n1` [Example 206, 8-Bromo-1,6-naphthyridine-2-carboxamide], the EC (150% of control) was 0.8 µM.
